According to US9567623B2, “Coelenterazine analogs” (JNC CORPORATION, priority 2013, dated 2017):

Legend:
[1] = molecular target: T1, nanoKAZ (mutated catalytic 19 kDa domain of Oplophorus luciferase) (Oplophorus gracilirostris, UniProt Q9GV45, A31E/A60N/A81I/F95D/I117V/K70R/L54V/L99Q/M102K/N193R/P142E/Q151K/Q38R/Q45L/V71I/Y165I); experiment: Luminescence activity of secreted codon-optimized nanoKAZ domain protein with coelenterazine analogs as substrates; format: biochemical; settings: for Relative maximum luminescence intensity (Imax) / Relative amount of integrated luminescence intensity (1 min.): relative to coelenterazine = 1.0; for Relative maximum luminescence intensity (Imax): 1 μg substrate, 50 mM Tris-HCl (pH 7.6)-10 mM EDTA, 60 seconds; for Relative amount of integrated luminescence intensity (1 min.): integrated for 60 seconds; for Luminescence pattern (decay): FIG. 3, recombinant nanoKAZ
T1 construct: secretory signal peptide of Gaussia luciferase (GLsp) (N, cleaved yes); made in house; host or cells: CHO-K1 transiently transfected with pcDNA3-GLsp-nanoKAZ; unpurified culture medium used as the enzyme solution
Description: The Chinese hamster ovary-derived cell line CHO-K1 was cultured in Ham's F-12 medium (manufactured by Wako Pure Chemical Industries, Ltd.) containing 10% (v/v) calf fetal serum (manufactured by Biowest Inc.), and cultured in DMEM (manufactured by Wako Pure Chemical Industries, Ltd.) containing 10% (v/v) calf fetal serum (manufactured by Biowest Inc.). The respective cells were seeded in a 6-well culture plate (n=2) with 1×10^5 cells/well/2 mL medium, and cultured in an incubator at 37° C. in 5% CO2, respectively. After 24 hours, the purified pcDNA3-GLsp-nanoKAZ plasmid was transfected into CHO-K1 cells using a FuGene HD Transfection Kit (manufactured by Promega Corp.), which was used in the subsequent experiment. Specifically, 1 μg of the pcDNA3-GLsp-nanoKAZ expression vector and 3 μL of FuGene HD were added to 100 μL of medium, which was allowed to stand at room temperature for 15 minutes. Then 100 μL of the DNA-FuGene complex solution was added to the cells in the 6 wells. After incubation for 48 hours, the culture medium was recovered and used as the secreted nanoKAZ enzyme solution for assay.
The enzyme solution, 5 μL, for assay obtained in EXAMPLE 4 (2) was added to 100 pt of 50 mM Tris-HCl (pH 7.6)-10 mM EDTA (Wako Pure Chemical Industries) containing 1 μg each of various coelenterazine analogs to initiate the luminescence reaction. The luminescence activity was determined by a luminometer (AB2200, manufactured by Atto Company) for 60 seconds and expressed by the maximum luminescence intensity (Imax) and the relative light units (du) of the lumimescence intensity integrated for 60 seconds.
The coelenterazine analogs used for substrate specificity analysis except for the analog described in EXAMPLE 1 were synthesized by the methods as described in the journals below, respectively. Specifically, bis-coelenterazine was synthesized by the method described in Nakamura et al. (1997) Tetrahedron Lett. 38: 6405-6406; Furimazine (Compound No. 3939 referred to in the journal) and C6d-coelenterazine (Compound No. 3840 referred to in the journal) by the method described in Hall et al. (2012) ACS Chem. Biol. […]; and the C2-coelenterazine analogs by the method described in Inouye et al (2010) Anal. Biochem. 407: 247-252. The enzyme solution of the culture medium in which nanoKAZ was secreted by the method as described in EXAMPLE 4 (2) was used for determining the luminescence activity with coelenterazine or its analogs. […] As a result, the luminescence substrates which can markedly improve the luminescence intensity and the amount of the integrated luminescence intensity to compare with furimazine are bis-coelenterazine and C6d-f-coelenterazine, showing a continuous luminescence without a decay of the luminescence intensity.

[2] = molecular target: T2, Catalytic 19 kDa domain of Oplophorus luciferase (Oplophorus gracilirostris, UniProt Q9GV45); experiment: Substrate specificity of various luciferases: catalytic 19 kDa domain of Oplophorus luciferase; format: biochemical, Oplophorus grachlorostris; settings: for Maximum Luminescence Intensity (Imax, %) / Relative Amount of Integrated Luminescence Intensity (1 min, %): relative to coelenterazine = 100
T2 construct: The catalytic 19 kDa domain of Oplophorus luciferase was produced by the method described in; made in house
Description: (§1) The preparation of various luciferases and the determination of their luminescence activities were carried out in accordance with the methods as previously reported. The catalytic 19 kDa domain of Oplophorus luciferase was produced by the method described in Inouye S. & Sasaki S. (2007) Protein Express. Purif. 56, 261-268, Gaussia luciferase by the method described in Inouye S & Sahara Y. (2008) Biochem. Biophys. Res. Commun. 368, 600-605, Renilla luciferase and Renilla luciferase 547 by the method described in Inouye S. et al. (2013) Protein Express. Purif. 88, 150-156, and aequorin by the method described in Inouye S et al. (2010) Anal. Biochem. 407, 247-252, respectively, and used.

[3] = tested on: Gaussia luciferase; experiment: Substrate specificity of various luciferases: Gaussia luciferase; format: biochemical; settings: relative to coelenterazine = 100
Description: as §1

[4] = molecular target: T3, Renilla luciferase (Renilla reniformis, UniProt P27652); experiment: Substrate specificity of various luciferases: Renilla luciferase; format: biochemical; settings: relative to coelenterazine = 100
T3 construct: made in house
T3 sequence (P27652 1-311): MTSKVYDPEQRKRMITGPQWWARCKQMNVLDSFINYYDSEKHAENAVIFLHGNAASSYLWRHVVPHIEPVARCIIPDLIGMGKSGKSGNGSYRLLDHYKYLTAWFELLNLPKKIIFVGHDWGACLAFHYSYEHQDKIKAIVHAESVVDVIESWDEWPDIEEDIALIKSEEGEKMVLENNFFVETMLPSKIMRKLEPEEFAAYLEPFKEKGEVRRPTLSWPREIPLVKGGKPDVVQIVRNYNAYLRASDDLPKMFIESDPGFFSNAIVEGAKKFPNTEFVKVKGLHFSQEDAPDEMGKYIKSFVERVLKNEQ
Description: as §1

[5] = tested on: Renilla luciferase 547; experiment: Substrate specificity of various luciferases: Renilla luciferase 547; format: biochemical; settings: relative to coelenterazine = 100
Description: as §1

[6] = molecular target: T4, Aequorin (Aequorea victoria, UniProt P07164); format: biochemical, jellyfish; settings: relative to coelenterazine = 100
T4 construct: made in house
Description: as §1

[7] = Stability of coelenterazine analogs in aqueous solution (HPLC); format: physicochemical; settings: 30 mM Tris-HCl (pH 7.6)
Description: The stability of coelenterazine analogs in an aqueous solution was examined by dissolving 10 μg of coelenterazine analogs in 0.5 mL of 30 mM Tris-HCl (pH 7.6), allowing the solution to stand at 37° C. for 22 hours, and then the degradation of coelenterazine analogs was determined by HPLC analysis. The HPLC analysis was performed by the modified method as described in Inouye S. et al. (2013) Protein Express. Purif. 88, 150-156.

[8] = incubation time at 37° C. 0 hour
[9] = incubation time at 37° C. 22 hours

T2 sequence (Q9GV45 28-196): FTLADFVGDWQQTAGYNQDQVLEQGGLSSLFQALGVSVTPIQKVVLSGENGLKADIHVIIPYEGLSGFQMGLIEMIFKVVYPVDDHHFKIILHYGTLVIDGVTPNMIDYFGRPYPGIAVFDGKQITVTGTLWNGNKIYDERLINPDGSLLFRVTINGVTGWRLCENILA
T1 sequence (Q9GV45 other isoform, or with tags, fused parts or gaps with the stated changes): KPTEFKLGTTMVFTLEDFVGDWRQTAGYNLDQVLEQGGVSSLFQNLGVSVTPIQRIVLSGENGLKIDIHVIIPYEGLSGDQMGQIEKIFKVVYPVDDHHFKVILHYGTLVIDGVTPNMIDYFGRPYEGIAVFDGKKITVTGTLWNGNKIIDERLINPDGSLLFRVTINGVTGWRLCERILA
T4 sequence (P07164 8-196): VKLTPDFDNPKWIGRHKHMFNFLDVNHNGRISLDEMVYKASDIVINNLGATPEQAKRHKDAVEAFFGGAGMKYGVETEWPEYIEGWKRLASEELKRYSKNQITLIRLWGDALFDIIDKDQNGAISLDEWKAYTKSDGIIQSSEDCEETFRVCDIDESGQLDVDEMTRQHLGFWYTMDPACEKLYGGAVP

Molecule | Relative maximum luminescence intensity (Imax) [1] | Relative amount of integrated luminescence intensity (1 min.) [1] | Maximum Luminescence Intensity (Imax, %) [2] | Relative Amount of Integrated Luminescence Intensity (1 min, %) [2] | Maximum Luminescence Intensity (Imax, %) [3] | Relative Amount of Integrated Luminescence Intensity (1 min, %) [3] | Maximum Luminescence Intensity (Imax, %) [4] | Relative Amount of Integrated Luminescence Intensity (1 min, %) [4] | Maximum Luminescence Intensity (Imax, %) [5] | Relative Amount of Integrated Luminescence Intensity (1 min, %) [5] | Maximum Luminescence Intensity (Imax, %) [6] | Relative Amount of Integrated Luminescence Intensity (1 min, %) [6] | Residual Ratio of Coelenterazine Analog (%) [7, 8] | Residual Ratio of Coelenterazine Analog (%) [7, 9] | Luminescence pattern (decay) [1] | Suitability as substrate ([2]; in words, from TABLE 2)
coelenterazine [Coelenterazine (CTZ)] | 1.0 | 1.0 | 100% | (100) % | 100% | (100) % | 100% | (100) % | 100% | (100) % | 100% | (100) % | 100% | 2% |  | 
bis-coelenterazine | 10.3 | 9.7 | 108% | (102) % | 0% | (0) % | 0.04% | (0.03) % | 0.07% | (0.08) % | 0.01% | (0.01) % | 100% | 38% | did not exhibit a rapid decay | 
O=c1c(Cc2ccc(F)cc2)nc2c(Cc3ccccc3)[nH]c(-c3ccc(O)cc3)cn1-2 [f-Coelenterazine] | 19.5 | 11.1 | 78.6% | (85.7) % | 5.0% | (10) % | 65.3% | (71.4) % | 78.0% | (68.1) % | 42.3% | (59.0) % |  |  |  | 
O=c1c(Cc2ccco2)nc2c(Cc3ccccc3)[nH]c(-c3ccccc3)cn1-2 [Furimazine] | 5.5 | 5.7 | 72.2% | (65.2) % | 0% | (0) % | 0.01% | (0.01) % | 0.01% | (0.01) % | 0.02% | (0.02) % | 100% | 3% | did not exhibit a rapid decay | 
C6d-coelenterazine | 0.8 | 0.7 | 9.0% | (7.7) % | 0.8% | (0.8) % | 0.02% | (0.02) % | 0.12% | (0.12) % | 0.03% | (0.03) % |  |  |  | 
O=c1c(Cc2ccc(F)cc2)nc2c(Cc3ccccc3)[nH]c(-c3ccccc3)cn1-2 [C6d-f-Coelenterazine, C6d-f-coelenterazine] | 10.1 | 10.1 | 100% | (105) % | 0% | (0) % | 0.07% | (0.01) % | 0.17% | (0.13) % | 0.12% | (0.19) % | 100% | 49% | did not exhibit a rapid decay | good substrate
Oc1ccc(-c2cn3c(O)c(Cc4ccccc4)nc3c(Cc3ccccc3)n2)cc1 [h-Coelenterazine] | 17.0 | 10.1 | 92.6% | (101) % | 8.2% | (12.1) % | 68.5% | (73.5) % | 24.5% | (16.4) % | 84.0% | (68.0) % |  |  |  | 
